Laboratory results published in patent publication US20020103169A1, “Chemical derivatives and use thereof as antitelomerase agents” (priority 2000, published 2002).
Where two headings read alike, the source gives them in different places.

Experiments:
[1] = test system: G-quadruplex, oligonucleotide GGGTTAGGGTTAGGGTTAGGG (human telomeric motif); test: Fluorescence Tm: G-quadruplex stabilization of FAM+DABCYL telomeric oligonucleotide; format: binding; conditions: product 1 μM, oligonucleotide 0.2 μM, 0.1 M LiCl, 10 mM sodium cacodylate pH 7.6; reference Tm 44° C.
Source text: The G-quadruplex stabilizing activity can be determined with a method using the formation of a complex with fluorescein, for which the experimental protocol is described below. The compounds of the present invention can thus be used as a fluorescent probe for determining the presence of G-quadruplexes.
All the oligonucleotides, modified or unmodified, were synthesized by Eurogentec SA, Seraing, Belgium. The FAM+DABCYL oligonucleotide carries the catalogue reference OL-0371-0802 and has the sequence: […] (SEQ ID NO: 1), corresponding to 3.5 repeats of the human telomeric motif (strand rich in G). The fluorescein is attached to the 5′ end and the DABCYL to the 3′ end, via the chemical arms described by Eurogentec. The concentration of the samples was verified by spectrophotometry, recording the absorbance spectrum between 220 nm and 700 nm and using the molar extinction coefficient provided by the supplier. […]
All the measurements of fluorescence were carried out on a Spex Fluorolog DM1B apparatus, using an excitation line width of 1.8 nm and an emission line width of 4.5 nm. […] The oligonucleotide alone was analysed at 20, 30, 40, 50, 60, 70, and 80° C. The emission spectra were recorded using an excitation wavelength of 470 nm. The excitation spectra were recorded using either 515 nm or 588 nm as the emission wavelength. […] When present, this juxtaposition caused the aforementioned phenomenon of extinction of fluorescence, which was used for determining the presence of a G-quadruplex.
A stock solution of oligonucleotide at the strand concentration of 0.2 μM in a 0.1 M LiCl, 10 mM sodium cacodylate buffer, pH 7.6, was prepared beforehand, heated briefly at 90° C. and slowly cooled to 20° C., and then distributed, in 600 μl aliquots, into the fluorescence cuvettes. […]
Each experiment allows the measurement of only one sample. […] During this time, the fluorescence was measured simultaneously at two emission wavelengths (515 nm and 588 nm) using 470 nm as the excitation wavelength. […]

human telomerase = test: Telomerase activity assay (TRAP) with HL60 cell extract; format: biochemical; conditions: HL60 extract enriched in telomerase activity, TS extension followed by PCR
Description: The extract was stored at -80° C. […] ID NO: 3).

A549 cells = test: Cytotoxic activity on human tumor line, neutral red, 96 hours; format: cell-based
Description: The cells in the exponential growth phase were trypsinized, washed in 1X PBS and seeded into 96-well microplates (Costar) in a proportion of 4×10^4 cells/ml (0.2 ml/well). The cells were then incubated for 96 hours in the presence of varying concentrations of product to be tested (10,1, 0.1, and 0.01 μg/ml, each point in quadruplicate). 16 hours before the end of the incubation, 0.02% (final concentration) of neutral red was added to each well. At the end of the incubation, the cells were washed with IX PBS and lysed with 1% of sodium laurylsulphate. The cellular incorporation of the dye, which reflects cell growth, was evaluated by spectrophotometry at a wavelength of 540 nm for each sample, using a Dynatech MR5000 reader machine.

| Compound | Fluorescence Δ Tm [1] | IC50 (human telomerase) | IC50 (A549 cells) | IC50 (A549 cells; 96 hours incubation, neutral red incorporation, read-out: A459 Cytotox IC50) |
| --- | --- | --- | --- | --- |
| 7-Amino-2-(2-amino-1,6-dimethylpyrimidinio-4-yl)-(4-aminophenyl)-10-ethylphenanthridinium bromide [Example 3] | 9.6 °C | 0.047 µM | 13.4 µM |  |
| CC[n+]1c(-c2ccccc2)c2cc(NN=Nc3cccc(C(=N)N)c3)ccc2c2ccc(N)cc21.Cl.[Cl-] [Example 1, 7-(3-amidinophenyl)diazoamino-2-amino-10-ethyl-9-phenylphenanthridinium chloride hydrochloride] | 9.7 °C | 0.019 µM |  | 3.38 µM |
| Br.CC[n+]1c(-c2ccccc2)c2c(N=Nc3cccc(C(=N)N)c3)c(N)ccc2c2ccc(N)cc21.[Br-] [Example 2, 8-(3-Amidinophenyl)diazo-2,7-diamino-10-ethyl-9-phenylphenanthridinium bromide hydrobromide] | 7.9 °C | 0.097 µM |  |  |
